Reference: article PMC8151276, “An Integrated Approach toward NanoBRET Tracers for Analysis of GPCR Ligand Engagement” (Molecules, 2021)

Columns and labels:
Assay type in all cases: binding
P2RY4 = biological target: T1, P2RY4 (Homo sapiens, UniProt P51582); test: NanoBRET screen HiBiT-P2RY4 in HEK293
T1 construct: purchased Promega (in-house HiBiT-GPCR construct library, NanoBRET)
Description: (§1) Each tracer candidate was screened across the entire library of HiBiT-GPCR constructs using NanoBRET as the detection modality. As depicted in Figure 4A, the specificity of interactions was evaluated through decrease in BRET due to competitive displacement of a bound tracer by excess parental compound. Each tracer was analyzed for binding to each HiBiT-GPCR fusion in the absence and in the presence of competing parental compound. Briefly, HEK293 cells were transfected with HiBiT-GPCR constructs diluted into promoterless DNA to reduce expression and maximize translocation to the cell surface. Each tracer candidate was then screened at concentrations of 1 μM and 0.1 μM across cells expressing these fusions. Cells were treated for 1.5 h with tracer either alone or in the presence of 20 μM competing parental compound (i.e., control). BRET was measured upon addition of purified LgBiT and subsequent complementation with HiBiT genetically fused to a GPCR. The specificity of interactions was assessed through a decrease in BRET signal due to competitive displacement of the bound tracer. To further gauge the robustness of these interactions, the fold response over the control (i.e., BRETtracer/BRETcontrol) was calculated. We chose a 1.5-fold response, which translates to ≥7-fold signal over noise as the minimal threshold required to score an interaction as positive. […]. Below we highlight the screening results obtained for our exemplary fluorescent tracers based on Clozapine, Amitriptyline and AZD1283.
(§2) HiBiT-GPCR DNA constructs were diluted in 10 mM Tris pH 8 to a final concentration of 0.01 μg/μL, arrayed in 96-well plates and stored at −20 °C. For transfection, HEK293 cells were suspended in Opti-MEM (without phenol red) supplemented with 2% fetal bovine serum (Seradigm) and 100 units/mL penicillin–streptomycin (Gibco) at a final concentration of 220,000 cells/mL and dispensed into white 96-well plates at 90 μL/well. Subsequent transfections and screens were carried using an Agilent Bravo Automated Liquid Handling Platform. First, the 96-well HiBiT DNA arrays were diluted 25-fold in Opti-MEM (without serum or phenol red) to a final concentration of 0.0004 μg/μL and 20 μL of the diluted DNAs were transferred into new 96-well plates. Next, promoterless carrier DNA (1 μg/μL) was diluted 25-fold (0.04 μg/μL) and then dispensed into the diluted arrays at 20 μL/well. Following brief mixing, Viafect transfection reagent (Promega) diluted 16-fold into Opti-MEM was dispensed into the plates at 40 μL/well. After mixing by pipetting, plates were incubated for 10 min on the pipetting station deck. The DNA-transfection reagent complexes were then added to plates containing cells. To facilitate the screen, 10 μL of DNA-transfection reagent complexes were added in duplicates to the top 4 and bottom 4 rows, resulting in two identical 48-well arrays per plate. Plates with transfected cells were incubated for 18–20 h at 37 °C/5% CO2. A screen of each tracer across the entire library using two different concentrations requires duplicate plates of transfected cells. Depending on the number of tracers being screened, transfections can be scaled up using the same ratios. The next day, for each tracer, four 20× screening solutions in tracer dilution buffer (Promega) were prepared: two duplicates at final concentration of 20 μM and two duplicates at a final concentration of 2 μM. A competing unmodified compound was added to one of each duplicate at a final concentration of 400 μM. The four resulting solutions were diluted 4-fold in Opti-MEM without serum or phenol red to generate 5× solutions (5 µM and 0.5 µM tracer +/− 100 μM competing compound). To screen the library, a BioTek MultiFlo FX liquid dispenser was used to dispense 22.5 µL of tracer solution to the top 4 rows and 22.5 µL tracer + competing compound solution to the 4 bottom rows. Plates were briefly mixed on an orbital shaker and incubated for 1.5 h at room temperature. […]

C5AR1 = biological target: T2, C5AR1 (Homo sapiens, UniProt P21730); test: NanoBRET screen HiBiT-C5AR1 in HEK293
T2 construct: purchased Promega (in-house HiBiT-GPCR construct library, NanoBRET)
T2 sequence (P21730 1-350): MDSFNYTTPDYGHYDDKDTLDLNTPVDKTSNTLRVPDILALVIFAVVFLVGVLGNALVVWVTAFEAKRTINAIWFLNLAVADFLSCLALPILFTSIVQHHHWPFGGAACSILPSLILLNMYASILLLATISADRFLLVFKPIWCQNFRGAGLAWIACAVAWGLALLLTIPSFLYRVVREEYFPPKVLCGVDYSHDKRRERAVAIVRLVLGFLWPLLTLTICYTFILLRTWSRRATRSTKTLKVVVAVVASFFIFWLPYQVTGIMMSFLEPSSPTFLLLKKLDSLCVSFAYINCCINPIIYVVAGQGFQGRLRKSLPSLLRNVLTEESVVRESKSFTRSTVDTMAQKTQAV
Description: as §1, §2

GALR2 = biological target: T3, GALR2 (Homo sapiens, UniProt O43603); test: NanoBRET screen HiBiT-GALR2 in HEK293
T3 construct: purchased Promega (in-house HiBiT-GPCR construct library, NanoBRET)
T3 sequence (O43603 1-387): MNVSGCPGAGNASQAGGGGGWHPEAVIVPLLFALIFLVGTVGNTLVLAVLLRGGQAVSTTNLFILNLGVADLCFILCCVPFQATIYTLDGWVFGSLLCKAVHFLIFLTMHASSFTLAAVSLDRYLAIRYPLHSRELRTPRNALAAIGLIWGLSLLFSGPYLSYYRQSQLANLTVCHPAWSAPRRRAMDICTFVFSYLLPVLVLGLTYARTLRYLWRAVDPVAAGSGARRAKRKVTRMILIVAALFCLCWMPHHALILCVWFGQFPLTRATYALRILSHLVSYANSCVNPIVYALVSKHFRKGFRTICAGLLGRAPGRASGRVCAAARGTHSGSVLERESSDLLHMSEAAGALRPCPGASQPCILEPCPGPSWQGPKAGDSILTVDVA
Description: as §1, §2

HRH4 = biological target: T4, HRH4 (Homo sapiens, UniProt Q9H3N8); test: NanoBRET screen HiBiT-HRH4 in HEK293
T4 construct: purchased Promega (in-house HiBiT-GPCR construct library, NanoBRET)
Description: as §1, §2

[1] = tracer at 0.1μM, listed as amitriptyline-b-2-NB590
[2] = tracer at 1μM, listed as amitriptyline-b-2-NB590

T4 sequence (Q9H3N8 whole entry): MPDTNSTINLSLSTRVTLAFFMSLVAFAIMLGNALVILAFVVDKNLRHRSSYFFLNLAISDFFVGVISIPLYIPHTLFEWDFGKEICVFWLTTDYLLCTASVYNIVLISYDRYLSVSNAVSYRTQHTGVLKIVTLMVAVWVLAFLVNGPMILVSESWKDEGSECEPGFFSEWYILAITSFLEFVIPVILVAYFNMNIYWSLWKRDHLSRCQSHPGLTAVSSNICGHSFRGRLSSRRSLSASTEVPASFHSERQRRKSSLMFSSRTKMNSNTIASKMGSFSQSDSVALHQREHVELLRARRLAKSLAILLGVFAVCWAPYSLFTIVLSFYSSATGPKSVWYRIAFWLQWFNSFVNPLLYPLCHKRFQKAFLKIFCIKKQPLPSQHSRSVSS
T1 sequence (P51582 whole entry): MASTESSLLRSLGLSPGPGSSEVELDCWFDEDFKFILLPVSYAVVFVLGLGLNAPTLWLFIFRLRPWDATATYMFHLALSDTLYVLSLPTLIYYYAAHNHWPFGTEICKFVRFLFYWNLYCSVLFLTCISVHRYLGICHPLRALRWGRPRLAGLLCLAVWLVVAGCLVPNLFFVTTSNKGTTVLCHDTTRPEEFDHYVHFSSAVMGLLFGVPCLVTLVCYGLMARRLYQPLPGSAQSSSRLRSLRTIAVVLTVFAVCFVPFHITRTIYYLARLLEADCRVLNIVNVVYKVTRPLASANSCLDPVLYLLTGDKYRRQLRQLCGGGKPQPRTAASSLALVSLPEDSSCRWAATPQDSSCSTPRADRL

Row | SMILES | NanoBRET Fold Response (P2RY4; P2RY4, tracer 0.1μM) | NanoBRET Fold Response (P2RY4; P2RY4, tracer 1μM) | NanoBRET Fold Response (C5AR1; C5AR1, tracer 0.1μM) | NanoBRET Fold Response (C5AR1; C5AR1, tracer 1μM) | NanoBRET Fold Response (GALR2; GALR2, tracer 0.1μM) | NanoBRET Fold Response (GALR2; GALR2, tracer 1μM) | NanoBRET Fold Response (HRH4; HRH4, tracer 0.1μM) | NanoBRET Fold Response (HRH4; HRH4, tracer 1μM) | other results
1 | CN1CCN(C2=Nc3cc(Cl)ccc3Nc3ccc(CNC(=O)CCOCCOCCOCCOCCNC(=O)CCc4ccc5n4[B-](F)(F)[N+]4=C(c6ccc[nH]6)C=CC4=C5)cc32)CC1 [Clozapine-b-2-NB590] | – | – | – | – | – | – | – | – | NanoBRET Fold Response (P2RY4; P2RY4, 0.1μM tracer): 0.97; NanoBRET Fold Response (P2RY4; P2RY4, 1μM tracer): 0.97; NanoBRET Fold Response (C5AR1; C5AR1, 0.1μM tracer): 0.98; NanoBRET Fold Response (C5AR1; C5AR1, 1μM tracer): 1.02; NanoBRET Fold Response (GALR2; GALR2, 0.1μM tracer): 0.93; NanoBRET Fold Response (GALR2; GALR2, 1μM tracer): 0.99; NanoBRET Fold Response (HRH4; HRH4, 0.1μM tracer): 1.01; NanoBRET Fold Response (HRH4; HRH4, 1μM tracer): 0.81
2 | CN(C)CCC=C1c2ccccc2CCc2ccc(C(=O)NCCNC(=O)CCOCCOCCOCCOCCNC(=O)CCc3ccc4n3[B-](F)(F)[N+]3=C(c5ccc[nH]5)C=CC3=C4)cc21 [Amitriptyline-b-2-NB590] | – | – | – | – | – | – | – | – | NanoBRET Fold Response (P2RY4; [1]): 1.07; NanoBRET Fold Response (C5AR1; [1]): 1.01; NanoBRET Fold Response (C5AR1; tracer at 1μM): 0.97; NanoBRET Fold Response (GALR2; [1]): 1.10; NanoBRET Fold Response (GALR2; [2]): 1.11; NanoBRET Fold Response (HRH4; [1]): 0.97; NanoBRET Fold Response (HRH4; [2]): 1.13
3 | CCOC(=O)c1cc(C#N)c(N2CCC(C(=O)NS(=O)(=O)Cc3ccccc3/C=C/C(=O)NCCNC(=O)CCc3ccc4n3[B-](F)(F)[N+]3=C(c5ccc[nH]5)C=CC3=C4)CC2)nc1C [AZD1283-1-NB590] | – | – | – | – | – | – | – | – | NanoBRET Fold Response (P2RY4; P2RY4, 0.1μM): 1.05; NanoBRET Fold Response (P2RY4; P2RY4, 1μM): 1.12; NanoBRET Fold Response (C5AR1; C5AR1, 0.1μM): 1.07; NanoBRET Fold Response (C5AR1; C5AR1, 1μM): 1.07; NanoBRET Fold Response (GALR2; GALR2, 0.1μM): 1.09; NanoBRET Fold Response (GALR2; GALR2, 1μM): 1.04; NanoBRET Fold Response (HRH4; HRH4, 0.1μM): 1.16; NanoBRET Fold Response (HRH4; HRH4, 1μM): 1.10
4 | CC(C)N(CC[C@H](c1ccccc1)c1cc(CCNC(=O)CCOCCOCCOCCOCCNC(=O)CCc2ccc3n2[B-](F)(F)[N+]2=C(c4ccc[nH]4)C=CC2=C3)ccc1O)C(C)C [Tolterodine-2-NB590] | 1.08 | 0.94 | 0.95 | 1.08 | 0.97 | 1.09 | 1.05 | 1.03 | –
5 | CC(C)N(CC[C@H](c1ccccc1)c1cc(CCNC(=O)c2ccc(CNC(=O)CCc3ccc4n3[B-](F)(F)[N+]3=C(c5ccc[nH]5)C=CC3=C4)cc2)ccc1O)C(C)C [Tolterodine-BZ-NB590] | 0.97 | 1.08 | 1.01 | 1.11 | 0.99 | 1.08 | 0.82 | 0.88 | –
6 | O=C(CCOCCOCCOCCOCCNC(=O)CCc1ccc2n1[B-](F)(F)[N+]1=C(c3ccc[nH]3)C=CC1=C2)NCCCN1CCN(C2=Nc3ccccc3Oc3ccc(Cl)cc32)CC1 [Loxapine-a-2-NB590] | 0.95 | 1.28 | 1.01 | 0.98 | 1.09 | 1.12 | 0.96 | 1.02 | –
